Experimental data reported in the NIST ThermoML archive (doi:10.1016/j.jct.2013.01.032).

Columns and labels:
[1] = mn = molality of the nth substance listed, in mol/kg; details: 101 kPa, Liquid; for speed of sound: Sing-around technique in a fixed-path interferometer; for mass density: Vibrating tube method
[2] = osmotic coefficient (dimensionless); mn = molality of the nth substance listed, in mol/kg; details: 323.15 K, Liquid, Knauer Osmometer

CCCCn1cc[n+](C)c1.O=S(=O)([O-])C(F)(F)F [1-butyl-3-methylimidazolium trifluoromethanesulfonate] + CCCCCO
[1]
Details	mass density, 293.15 K [kg/m3]	mass density, 308.15 K [kg/m3]	mass density, 323.15 K [kg/m3]	speed of sound, 293.15 K [m/s]	speed of sound, 308.15 K [m/s]	speed of sound, 323.15 K [m/s]
m1 = 0.048	818.89	807.86	796.5	1292.6	1242.7	1193.2
m1 = 0.103	823.68	812.65	801.3	1292.3	1242.7	1193.6
m1 = 0.203	832.08	821.04	809.68	1291.9	1242.7	1194.1
m1 = 0.246	835.58	824.54	813.18	1291.4	1242.6	1194.1
m1 = 0.746	872.74	861.58	850.17	1289	1242	1195.6
m1 = 1.014	890.36	879.13	867.69	1288.5	1242.2	1196.7
m1 = 1.517	919.71	908.4	896.89	1288.2	1243.4	1199.3
m1 = 1.778	933.35	921.98	910.45	1288.6	1244.5	1201
m1 = 2.024	945.34	933.93	922.38	1289.4	1245.7	1202.7
m1 = 2.477	965.54	954.08	942.49	1290.7	1248.1	1205.9
m1 = 2.963	984.77	973.25	961.63	1292.8	1250.8	1209.4

[2]
Details	osmotic coefficient
m1 = 0.0505	0.619
m1 = 0.0795	0.565
m1 = 0.1004	0.529
m1 = 0.2014	0.436
m1 = 0.3014	0.402
m1 = 0.406	0.365
m1 = 0.5071	0.344
m1 = 0.8272	0.299
m1 = 1.233	0.242
m1 = 1.649	0.224
m1 = 2.044	0.202
m1 = 2.446	0.183
m1 = 2.837	0.184
m1 = 3.34	0.184

CCCCn1cc[n+](C)c1.O=S(=O)([O-])C(F)(F)F [1-butyl-3-methylimidazolium trifluoromethanesulfonate] + CCCCO
[1]
Details	mass density, 293.15 K [kg/m3]	mass density, 308.15 K [kg/m3]	mass density, 323.15 K [kg/m3]	speed of sound, 293.15 K [m/s]	speed of sound, 308.15 K [m/s]	speed of sound, 323.15 K [m/s]
m1 = 0.052	814.31	802.84	790.99	1257.8	1207.6	1158.1
m1 = 0.101	818.63	807.15	795.31	1258	1208	1158.8
m1 = 0.153	823.08	811.61	799.78	1257.7	1208.3	1159.4
m1 = 0.206	827.53	816.05	804.22	1257.9	1208.8	1160.1
m1 = 0.25	831.16	819.67	807.85	1258	1209.1	1160.6
m1 = 0.504	851.11	839.58	827.75	1258	1210.5	1163.2
m1 = 0.756	869.28	857.7	845.85	1259.2	1212.1	1165.7
m1 = 1.009	886.03	874.41	862.55	1260.2	1213.9	1168.4
m1 = 1.262	901.54	889.89	878.01	1261	1215.8	1171
m1 = 1.508	915.57	903.89	892	1262.4	1217.9	1173.7
m1 = 1.758	928.83	917.11	905.21	1263.9	1219.9	1176.4
m1 = 1.989	940.32	928.56	916.64	1265.8	1222	1179
m1 = 2.486	962.85	951.04	939.1	1269.5	1226.6	1184.5
m1 = 2.979	982.55	970.73	958.77	1273.1	1231.2	1189.8

[2]
Details	osmotic coefficient
m1 = 0.0481	0.84
m1 = 0.1053	0.618
m1 = 0.2108	0.512
m1 = 0.3131	0.457
m1 = 0.4049	0.425
m1 = 0.4947	0.403
m1 = 0.8149	0.36
m1 = 1.216	0.323
m1 = 1.613	0.301
m1 = 2.036	0.28
m1 = 2.425	0.268
m1 = 2.82	0.27
m1 = 3.311	0.259
